In patent publication US20050153894A1, “p21 peptides” (Cyclacel Limited, priority 1999, published 2005):
Like-named read-outs stand apart in the source and are kept apart here. Square brackets hold non-standard residues; d marks the D form. Ends that are not written are not given here. 1Nal = N[C@@H](Cc1cccc2ccccc12)C(=O)O; Cha = N[C@@H](CC1CCCCC1)C(=O)O; Nva = CCC[C@H](N)C(=O)O; βLeu = beta-Leu

Columns and labels:
CDK4/Cyclin D1 [1] = biological target: T1, CDK4/Cyclin D1 (Homo sapiens, UniProt P24385); conditions: WO97/42222 and Ball et al., cited from earlier work
T1 construct: made in house; host or cells: CDK4: Sf9 insect cells (baculovirus)

CDK2/Cyclin E [2] = biological target: T2, CDK2/Cyclin E (Homo sapiens, UniProt P24864); test: CDK2/Cyclin E kinase assay, phosphorylation of GST-Rb; assay type: biochemical
T2 construct: 6xHis; made in house; host or cells: Sf9 insect cells (baculovirus co-expression)
Description: (§1) The phosphorylation reaction mixture (total volume 40 μl) consisted of 50 mM HEPES pH 7.4, 20 mM MgCl2, 5 mM EGTA, 2 mM DTT, 20 mM β-glycerophosphate, 2 mM NaF, 1 mM Na3VO4, Protease Inhibitors Cocktail (Sigma, see above), BSA 0.5 mg/ml, 1 μg purified enzyme complex, 10 μl of GST-Rb-Sepharose beads, 100 μM ATP, 0.2 μCi ^32P-ATP. The reaction was carried out for 30 min at 30° C. at constant shaking. At the end of this period 100 μl of 50 mM HEPES, pH 7.4 and 1 mM ATP were added to each well and the total volume was transferred onto GFC filtered plate. The plate was washed 5 times with 200 μl of 50 mM HEPES, pH 7.4 and 1 mM ATP. To each well were added 50 μl scintillant liquid and the radioactivity of the samples was measured on Scintilation counter (Topcount, HP). The IC50 values of different peptides were calculated using GraFit software.

CDK4/Cyclin D1 [3] = biological target: T1, CDK4/Cyclin D1; test: CDK4/Cyclin D1 kinase assay, phosphorylation of GST-Rb; assay type: biochemical
Description: as §1
Peptides were synthesized as described above. Cyclin D1 was expressed in E coli BL21(DE3) using PET expression vector and purified from the inclusion bodies. After refolding Cyclin D1 was cross-linked on SulfoLink agarose support (PIERCE). CDK4-6×His was expressed in Sf9 insect cells infected with the appropriate baculovirus construct and purified by metal-affinity chromatography (Quiagen). […] CDK4/Cyclin D1 phosphorilation of Rb was determined by incorporation of radio-labeled phosphate in GST-Rb in 96-well format kinase assay. […] The reaction was carried out for 30 min at 30 C at constant shaking. The GST-Rb-Sepharose beads were washed with 50 mM HEPES and 1 mM ATP and the radioactivity was measured on Scintillation counter (Topcount, HP)

CDK1/Cyclin B [4] = biological target: T3, CDK1/Cyclin B (Homo sapiens, UniProt P14635); test: CDK1/Cyclin B kinase assay, phosphorylation of GST-Rb; assay type: biochemical; conditions: CDK1-Cyclin B induced phosphorylation of GST-Rb
T3 construct: 6xHis; made in house; host or cells: Sf9 insect cells (baculovirus co-expression)
Description: as §1

CDK1/Cyclin B [5] = biological target: T3, CDK1/Cyclin B; test: CDK1/Cyclin B kinase assay, phosphorylation of Histone 1; assay type: biochemical; conditions: CDK1-Cyclin B induced phosphorylation of Histone 1
Description: Histone 1 phosphorylation induced by CDK2/Cyclin E and CDK1/Cyclin B was measured using similar method. The concentration of Histone 1 in the kinase reaction was 1 mg/ml (unless different stated).

CDK2/cyclin A [6] = biological target: T4, CDK2/cyclin A (Homo sapiens, UniProt P20248); test: Functional kinase assay, CDK2/cyclin A phosphorylation of GST-pRb(773-928); assay type: biochemical; conditions: read-out: Inhibitory activity IC50 ± SD, Functional kinase assay
Description: Reactions were stopped on ice, followed by addition of 5 μL/well of glutathione-Sepharose 4B (Amersham Biosciences) and further incubation with shaking for 30 min at room temperature. The mixtures were then filtered on Whatman GF/C filterplates and washed 4 times with 0.2 mL/well of 50 mM HEPES containing 1 mM ATP. Plates were dried, sealed, and scintillant (Microscint 40) was added. Incorporated radioactivity was measured using a scintillation counter (TopCount, Packard Instruments, Pangbourne, Berks, UK). Half-maximal inhibition (IC50) was calculated from dose-response curves.

CDK2/Cyclin E [7] = biological target: T2, CDK2/Cyclin E; conditions: GST-Rb phosphorylation; Ball et al.; cited from earlier work
Cyclin D1 = biological target: T5, Cyclin D1 (Homo sapiens, UniProt P24385); test: Competitive Cyclin D1 binding assay (ELISA), immobilised biotinylated p21 (149-159); conditions: for IC50: immobilised p21 (149-159) peptide
T5 construct: made in house
Description: The amount of bound Cyclin D1/Cyclin A was immunodetected and quantified by Turbo-ELISA reagent (PIERCE).
The next important question was if these peptides share the same kinase inhibitory mechanism (bind to the same Cyclin docking site).

CDK2/cyclin A [8] = biological target: T4, CDK2/cyclin A; test: CDK2/cyclin A kinase assay, substrate pRb(773-928); assay type: biochemical; conditions: relative to H-His-Ala-Lys-Arg-Arg-Leu-Ile-Phe-NH2 (=1), pRb substrate, [ATP] = 100 μM
Description: Reactions were stopped on ice, followed by filtration through p81 filterplates (Whatman Polyfiltronics, Kent, UK).

Cyclin A = Cyclin A (Homo sapiens, UniProt P20248); test: Cyclin A binding assay, immobilised biotinyl-Ahx-[…]NH2; conditions: relative to H-His-Ala-Lys-Arg-Arg-Leu-Ile-Phe-NH2 (=1)
[9] = GST-pRb substrate, [ATP] = 100 μM

Sequence of Cyclin A (P20248 whole entry): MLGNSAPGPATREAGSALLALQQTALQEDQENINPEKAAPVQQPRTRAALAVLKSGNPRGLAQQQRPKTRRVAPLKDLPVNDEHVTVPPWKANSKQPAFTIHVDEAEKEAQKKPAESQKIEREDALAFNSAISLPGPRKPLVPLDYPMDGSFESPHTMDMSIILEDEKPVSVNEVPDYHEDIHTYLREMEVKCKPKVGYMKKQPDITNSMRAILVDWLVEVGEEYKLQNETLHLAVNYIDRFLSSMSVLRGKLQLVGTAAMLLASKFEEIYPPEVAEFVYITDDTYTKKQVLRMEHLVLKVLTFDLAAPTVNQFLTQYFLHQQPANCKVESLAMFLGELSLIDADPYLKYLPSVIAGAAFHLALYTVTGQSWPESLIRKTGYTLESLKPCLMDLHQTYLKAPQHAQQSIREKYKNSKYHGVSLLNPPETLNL
T5 sequence (P24385 whole entry): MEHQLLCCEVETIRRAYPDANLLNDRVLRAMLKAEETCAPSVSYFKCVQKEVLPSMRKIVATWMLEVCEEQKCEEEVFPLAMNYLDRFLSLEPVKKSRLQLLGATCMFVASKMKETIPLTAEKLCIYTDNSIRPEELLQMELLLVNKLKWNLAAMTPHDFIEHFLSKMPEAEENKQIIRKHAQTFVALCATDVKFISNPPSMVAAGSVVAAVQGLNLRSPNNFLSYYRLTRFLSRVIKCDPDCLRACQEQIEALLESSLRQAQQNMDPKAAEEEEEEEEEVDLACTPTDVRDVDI
T1 sequence (P24385 whole entry): as above
T1 sequence (P11802 whole entry partner): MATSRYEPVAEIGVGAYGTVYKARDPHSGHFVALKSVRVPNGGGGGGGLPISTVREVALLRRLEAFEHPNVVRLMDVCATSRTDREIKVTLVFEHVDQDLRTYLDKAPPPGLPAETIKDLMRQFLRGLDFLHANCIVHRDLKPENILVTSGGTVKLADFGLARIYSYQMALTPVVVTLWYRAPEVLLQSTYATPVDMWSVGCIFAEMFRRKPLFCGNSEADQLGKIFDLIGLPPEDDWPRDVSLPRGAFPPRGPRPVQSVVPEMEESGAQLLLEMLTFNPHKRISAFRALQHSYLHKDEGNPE
T3 sequence (P14635 whole entry): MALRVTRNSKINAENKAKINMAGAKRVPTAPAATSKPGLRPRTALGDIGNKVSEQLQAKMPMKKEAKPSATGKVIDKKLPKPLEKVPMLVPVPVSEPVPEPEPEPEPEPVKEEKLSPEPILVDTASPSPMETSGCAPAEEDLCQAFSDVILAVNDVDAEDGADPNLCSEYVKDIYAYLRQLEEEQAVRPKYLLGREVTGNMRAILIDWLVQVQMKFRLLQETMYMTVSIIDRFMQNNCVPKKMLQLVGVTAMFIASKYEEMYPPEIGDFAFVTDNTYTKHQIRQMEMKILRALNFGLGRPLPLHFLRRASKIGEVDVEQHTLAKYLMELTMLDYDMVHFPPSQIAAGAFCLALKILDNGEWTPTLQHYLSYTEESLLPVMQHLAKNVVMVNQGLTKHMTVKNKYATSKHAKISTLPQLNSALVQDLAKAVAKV
T3 sequence (P06493 whole entry partner): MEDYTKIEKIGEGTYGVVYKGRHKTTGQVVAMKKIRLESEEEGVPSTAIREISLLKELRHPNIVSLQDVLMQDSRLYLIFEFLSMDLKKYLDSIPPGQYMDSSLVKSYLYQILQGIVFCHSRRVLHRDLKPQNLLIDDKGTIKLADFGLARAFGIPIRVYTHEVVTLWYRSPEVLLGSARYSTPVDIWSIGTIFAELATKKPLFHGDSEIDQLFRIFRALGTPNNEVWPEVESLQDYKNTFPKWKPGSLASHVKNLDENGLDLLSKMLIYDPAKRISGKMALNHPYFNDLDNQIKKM

For KRRLIFSK [reference compound], which “concentration for inhibitory activity against cyclin D1-CDK4 relative to parent p21(141-160)” value (CDK4/Cyclin D1 [1]) is on record?
Its value is 1000 times.

What about the “Kinase Inhibition Cyclin E/CDK2 % Inhibition” value (CDK2/Cyclin E [2]; [9]) of the same compound?
The value was 60%.

What about the “Kinase Inhibition Cyclin E/CDK2 IC30” value (CDK2/Cyclin E [2]; [9]) of the same compound?
The value was over 200 µM.

And the “Kinase Inhibition Cyclin D1/CDK4 % Inhibition” value (CDK4/Cyclin D1 [3]; [9])?
The value was 20%.

For `CC[C@H](C)[C@H](NC(=O)[C@H](CC(C)C)NC(=O)[C@H](CCCNC(=N)N)NC(=O)[C@H](CCCNC(=N)N)NC(=O)[C@H](CCCCN)NC(=O)[C@H](C)NC(=O)[C@H](Cc1c[nH]cn1)NC(=O)[C@H](Cc1ccc(O)cc1)NC(=O)[C@H](Cc1ccccc1)NC(=O)[C@@H](N)CC(=O)O)C(=O)N[C@@H](Cc1ccccc1)C(=O)N[C@@H](CO)C(N)=O` [p21(149-160)Ser153Ala], which IC50 (CDK2/Cyclin E [2]; read-out: IC50, CDK2-Cyclin E induced phosphorylation of GST-Rb) is on record?
The IC50 was 0.04 µM.

What about the IC50 (CDK1/Cyclin B [4]) of the same compound?
Its IC50 is over 200 µM.

What about the IC50 (CDK1/Cyclin B [5]) of the same compound?
The IC50 was over 200 µM.

For `CC(=O)N[C@@H](CC(C)C)C(=O)N[C@@H](CC(N)=O)C(=O)N[C@@H](Cc1ccc(F)cc1)C(N)=O` [VI.42], which IC50 (CDK2/cyclin A [6]) is on record?
Its IC50 is 139 ± 10 µM.

For “p21(141-160): 20-residue peptide derived from the C-terminus of p21^WAF1 (residues 141-160), Ball et al.”, which IC50 (CDK4/Cyclin D1 [1]; Asp149Ala effect said not reproducible, read-out: IC50, cyclin D1-CDK4 inhibition) is on record?
The IC50 was 0.1 µM.

What about the “activity against cyclinD1/CDK4 relative to cyclinE/CDK2” value (CDK2/Cyclin E [7]) of the same compound?
Its value is 40 times.

Which IC50 (Cyclin D1) does the source give for `CC[C@H](NC(=O)[C@H](C)NC(=O)[C@@H](N)CO)C(=O)N[C@@H](CCCNC(=N)N)C(=O)N[C@@H](CC(N)=O)C(=O)N[C@@H](CC(C)C)C(=O)N[C@@H](Cc1ccccc1)C(=O)NCC(N)=O` [SEQ ID NO. 41, H-Ser-Ala-Abu-Arg-Asn-Leu-Phe-Gly-NH2] here?
The IC50 was over 200 µM.

For VI.38 (Ac-RR[βLeu]F-NH2), which IC50 (CDK2/cyclin A [6]; recombinant human CDK2/cyclin A, GST-pRb(773-928) substrate, 30 min at 30° C) is on record?
Its IC50 is 216 µM.

Which “Kinase Inhibition Cyclin E/CDK2 % Inhibition” value (CDK2/Cyclin E [2]; phosphorylation of pRb) does the source give for `CC(C)C[C@H](NC(=O)[C@H](CC(=O)O)NC(=O)[C@H](CC(C)C)NC(=O)[C@H](CCCNC(=N)N)NC(=O)[C@H](CCCNC(=N)N)NC(=O)[C@H](CCCCN)NC(=O)[C@H](CO)NC(=O)[C@@H](N)Cc1c[nH]cn1)C(N)=O` here?
Its value is 74%.

What about the “competition with Biotin-DFYHSKRRLIF for binding to Cyclin D1, in words” value (Cyclin D1) of the same compound?
The value was “not able”.

What about the IC50 (Cyclin D1) of the same compound?
Its IC50 is over 200 µM.

What about the “inhibition of CDK4/Cyclin D1 phosphorylation of GST-Rb, in words” value (CDK4/Cyclin D1 [3]) of the same compound?
The value was “not able to inhibit”.

What about the “Kinase Inhibition Cyclin D1/CDK4 % Inhibition” value (CDK4/Cyclin D1 [3]; phosphorylation of pRb) of the same compound?
Its value is 24%.

Which IC50 (Cyclin D1) does the source give for H-HAKRRLIF-NH2 here?
Its IC50 is 13 µM.

With “H-His-Ala-Lys-Arg-Arg-Cha-Ile Phe-NH2 (H-HAKRR[Cha]IF-NH2; SMILES CC[C@H](C)[C@H](NC(=O)[C@H](CC1CCCCC1)NC(=O)[C@H](CCCNC(=N)N)NC(=O)[C@H](CCCNC(=N)N)NC(=O)[C@H](CCCCN)NC(=O)[C@H](C)NC(=O)[C@@H](N)Cc1c[nH]cn1)C(=O)N[C@@H](Cc1ccccc1)C(N)=O)” as the compound, how does the “Relative activity Kinase Inhibition” value (CDK2/cyclin A [8]; Leu157 substitutions) read?
The value was under 0.1.

And the “Relative activity Cyclin A Binding” value (Cyclin A; Leu157 substitutions)?
The value was under 0.1.

For “H-His-Ala-Lys-Arg-Arg-Leu-Ile-1Nap-NH2 (H-HAKRRLI[1Nal]-NH2; SMILES CC[C@H](C)[C@H](NC(=O)[C@H](CC(C)C)NC(=O)[C@H](CCCNC(=N)N)NC(=O)[C@H](CCCNC(=N)N)NC(=O)[C@H](CCCCN)NC(=O)[C@H](C)NC(=O)[C@@H](N)Cc1c[nH]cn1)C(=O)N[C@@H](Cc1cccc2ccccc12)C(N)=O)”, which “Relative activity Kinase Inhibition” value (CDK2/cyclin A [8]; Phe159 substitutions) is on record?
Its value is 0.2.

What about the “Relative activity Cyclin A Binding” value (Cyclin A; Phe159 substitutions) of the same compound?
The value was under 0.1.

For `CC(C)C[C@H](NC(=O)[C@H](CCCNC(=N)N)NC(=O)[C@H](CCCNC(=N)N)NC(=O)[C@H](CCCCN)NC(=O)[C@H](CO)NC(=O)[C@@H](N)Cc1c[nH]cn1)C(=O)N[C@@H](Cc1ccccc1)C(=O)NCC(N)=O`, which IC50 (Cyclin D1) is on record?
Its IC50 is over 200 µM.

For “H-His-Nva-Lys-Arg-Arg.Leu-Ile Phe.NH2 (H-H[Nva]KRRLIF-NH2; SMILES CCC[C@H](NC(=O)[C@@H](N)Cc1c[nH]cn1)C(=O)N[C@@H](CCCCN)C(=O)N[C@@H](CCCNC(=N)N)C(=O)N[C@@H](CCCNC(=N)N)C(=O)N[C@@H](CC(C)C)C(=O)N[C@H](C(=O)N[C@@H](Cc1ccccc1)C(N)=O)[C@@H](C)CC)”, which “Relative activity Kinase Inhibition” value (CDK2/cyclin A [8]; Ala153 substitutions) is on record?
Its value is under 0.1.

And the “Relative activity Cyclin A Binding” value (Cyclin A; Ala153 substitutions)?
The value was under 0.1.

Which “Relative activity Kinase Inhibition” value (CDK2/cyclin A [8]; Phe159 substitutions) does the source give for HAKRRLIL-NH2 here?
The value was 0.3.

What about the “Relative activity Cyclin A Binding” value (Cyclin A; Phe159 substitutions) of the same compound?
Its value is under 0.1.

For “H-His-Ala-Lys-Arg-Arg-Phe-Ile Phe-NH2 (H-HAKRRFIF-NH2)”, which “Relative activity Kinase Inhibition” value (CDK2/cyclin A [8]; Leu157 substitutions) is on record?
The value was under 0.1.

And the “Relative activity Cyclin A Binding” value (Cyclin A; Leu157 substitutions)?
The value was under 0.1.

With HAKRRLLF-NH2 as the compound, how does the “Relative activity Kinase Inhibition” value (CDK2/cyclin A [8]; Ile158 substitutions) read?
Its value is 1.2.

What about the “Relative activity Cyclin A Binding” value (Cyclin A; Ile158 substitutions) of the same compound?
The value was 0.6.

With `CC(C)C[C@H](NC(=O)[C@H](CC(=O)O)NC(=O)[C@H](CC(C)C)NC(=O)[C@H](CCCNC(=N)N)NC(=O)[C@H](CCCNC(=N)N)NC(=O)[C@H](CCCCN)NC(=O)[C@@H](NC(=O)[C@@H]1CCCN1)C(C)C)C(N)=O` [reference compound] as the compound, how does the “Kinase Inhibition Cyclin E/CDK2 % Inhibition” value (CDK2/Cyclin E [2]; phosphorylation of pRb) read?
The value was 74%.

What about the IC50 (CDK2/Cyclin E [2]; phosphorylation of pRb, read-out: Kinase Inhibition Cyclin E/CDK2 IC50) of the same compound?
Its IC50 is 2.1 µM.

What about the “competition with Biotin-DFYHSKRRLIF for binding to Cyclin D1, in words” value (Cyclin D1) of the same compound?
The value was “not able”.

And the IC50 (Cyclin D1)?
Its IC50 is over 100 µM.

And the “inhibition of CDK4/Cyclin D1 phosphorylation of GST-Rb, in words” value (CDK4/Cyclin D1 [3])?
The value was “not able to inhibit”.

And the “Kinase Inhibition Cyclin D1/CDK4 % Inhibition” value (CDK4/Cyclin D1 [3]; phosphorylation of pRb)?
The value was 58%.

What about the IC50 (CDK4/Cyclin D1 [3]; phosphorylation of pRb, read-out: Kinase Inhibition Cyclin D1/CDK4 IC50) of the same compound?
Its IC50 is 99 µM.
